Measured values published in publication PMC8699473, “An Easily Expandable Multi-Drug LC-MS Assay for the Simultaneous Quantification of 57 Oral Antitumor Drugs in Human Plasma” (Cancers, 2021).

Test: Long-term stability in spiked pooled human plasma

| SMILES | Long-term stability, 1 month, -20°C Accuracy [%] (validation standard 2xLLOV) | Long-term stability, 1 month, -80°C Accuracy [%] (validation standard 2xLLOV) | Long-term stability, 2 month, -20°C Accuracy [%] (validation standard 2xLLOV) | Long-term stability, 2 month, -80°C Accuracy [%] (validation standard 2xLLOV) | Long-term stability, 3 month, -20°C Accuracy [%] (validation standard 2xLLOV) | Long-term stability, 3 month, -80°C Accuracy [%] (validation standard 2xLLOV) | Long-term stability, 6 weeks, 4°C, without daylight Accuracy [%] (validation standard 2xLLOV) | Long-term stability, 1 month, -20°C Accuracy [%] (validation standard LLOV) | Long-term stability, 1 month, -80°C Accuracy [%] (validation standard LLOV) | Long-term stability, 2 month, -20°C Accuracy [%] (validation standard LLOV) | Long-term stability, 2 month, -80°C Accuracy [%] (validation standard LLOV) | Long-term stability, 3 month, -20°C Accuracy [%] (validation standard LLOV) | Long-term stability, 3 month, -80°C Accuracy [%] (validation standard LLOV) | Long-term stability, 6 weeks, 4°C, without daylight Accuracy [%] (validation standard LLOV) | Long-term stability, 1 month, -20°C Accuracy [%] (validation standard MOV) | Long-term stability, 1 month, -80°C Accuracy [%] (validation standard MOV) | Long-term stability, 2 month, -20°C Accuracy [%] (validation standard MOV) | Long-term stability, 2 month, -80°C Accuracy [%] (validation standard MOV) | Long-term stability, 3 month, -20°C Accuracy [%] (validation standard MOV) | Long-term stability, 3 month, -80°C Accuracy [%] (validation standard MOV) | also measured |
| --- | --- | --- | --- | --- | --- | --- | --- | --- | --- | --- | --- | --- | --- | --- | --- | --- | --- | --- | --- | --- | --- |
| CNC(=O)c1ccc(N2C(=S)N(c3cnc(C#N)c(C(F)(F)F)c3)C(=O)C23CCC3)cc1F [Apalutamide] | 94.7 | 93.2 | 91.6 | 100.0 | 85.1 | 94.9 | 73.5 | 96.1 | 100.0 | 93.4 | 102.3 | 90.4 | 98.4 | 78.5 | 89.4 | 91.1 | 90.2 | 97.6 | 86.8 | 89.7 | Long-term stability, 6 weeks, 4°C, without daylight Accuracy [%] (validation standard MOV): 54.9%; Long-term stability, 1 month, -20°C Accuracy [%] (validation standard ULOV): 90.6%; Long-term stability, 1 month, -80°C Accuracy [%] (validation standard ULOV): 90.2%; Long-term stability, 2 month, -20°C Accuracy [%] (validation standard ULOV): 88.9%; Long-term stability, 2 month, -80°C Accuracy [%] (validation standard ULOV): 95.9%; Long-term stability, 3 month, -20°C Accuracy [%] (validation standard ULOV): 78.8%; Long-term stability, 3 month, -80°C Accuracy [%] (validation standard ULOV): 90.1%; Long-term stability, 6 weeks, 4°C, without daylight Accuracy [%] (validation standard ULOV): 48.1% |
| CNC(=O)c1ccccc1Sc1ccc2c(/C=C/c3ccccn3)n[nH]c2c1 [Axitinib] | 86.8 | 86.83 | 87.6 | 94.2 | 92.9 | 100.1 | 66.5 | 87.8 | 83.07 | 110.1 | 90.5 | 107.3 | 102.5 | 49.2 | 89.8 | 87.50 | 87.7 | 92.2 | 95.9 | 90.5 | Long-term stability, 6 weeks, 4°C, without daylight Accuracy [%] (validation standard MOV): 100.5%; Long-term stability, 1 month, -20°C Accuracy [%] (validation standard ULOV): 92.0%; Long-term stability, 1 month, -80°C Accuracy [%] (validation standard ULOV): 87.13%; Long-term stability, 2 month, -20°C Accuracy [%] (validation standard ULOV): 88.8%; Long-term stability, 2 month, -80°C Accuracy [%] (validation standard ULOV): 91.3%; Long-term stability, 3 month, -20°C Accuracy [%] (validation standard ULOV): 86.8%; Long-term stability, 3 month, -80°C Accuracy [%] (validation standard ULOV): 91.9%; Long-term stability, 6 weeks, 4°C, without daylight Accuracy [%] (validation standard ULOV): 91.2% |
| Cn1cnc2c(F)c(Nc3ccc(Br)cc3F)c(C(=O)NOCCO)cc21 [Binimetinib] | 94.8 | 97.4 | 105.7 | 106.4 | 99.5 | 104.4 | 95.3 | 103.4 | 106.3 | 116.3 | 124.3 | 105.4 | 104.6 | 104.1 | 92.3 | 94.4 | 95.9 | 96.6 | 97.9 | 98.7 | Long-term stability, 6 weeks, 4°C, without daylight Accuracy [%] (validation standard MOV): 109.9%; Long-term stability, 1 month, -20°C Accuracy [%] (validation standard ULOV): 99.6%; Long-term stability, 1 month, -80°C Accuracy [%] (validation standard ULOV): 97.2%; Long-term stability, 2 month, -20°C Accuracy [%] (validation standard ULOV): 99.2%; Long-term stability, 2 month, -80°C Accuracy [%] (validation standard ULOV): 101.1%; Long-term stability, 3 month, -20°C Accuracy [%] (validation standard ULOV): 98.9%; Long-term stability, 3 month, -80°C Accuracy [%] (validation standard ULOV): 102.6%; Long-term stability, 6 weeks, 4°C, without daylight Accuracy [%] (validation standard ULOV): 99.7% |
| Cc1cc(Nc2ncc(Cl)c(Nc3ccccc3S(=O)(=O)C(C)C)n2)c(OC(C)C)cc1C1CCNCC1 [Ceritinib] | 94.3 | 89.5 | 94.4 | 96.4 | 91.8 | 93.4 | 77.8 | 101.5 | 96.1 | 99.7 | 103.7 | 96.9 | 100.3 | 78.9 | 93.3 | 93.7 | 94.6 | 95.5 | 94.1 | 95.7 | Long-term stability, 6 weeks, 4°C, without daylight Accuracy [%] (validation standard MOV): 104.9%; Long-term stability, 1 month, -20°C Accuracy [%] (validation standard ULOV): 97.3%; Long-term stability, 1 month, -80°C Accuracy [%] (validation standard ULOV): 94.0%; Long-term stability, 2 month, -20°C Accuracy [%] (validation standard ULOV): 99.1%; Long-term stability, 2 month, -80°C Accuracy [%] (validation standard ULOV): 100.5%; Long-term stability, 3 month, -20°C Accuracy [%] (validation standard ULOV): 101.8%; Long-term stability, 3 month, -80°C Accuracy [%] (validation standard ULOV): 100.0%; Long-term stability, 6 weeks, 4°C, without daylight Accuracy [%] (validation standard ULOV): 97.9% |
| O=C(c1ccc(F)c(F)c1Nc1ccc(I)cc1F)N1CC(O)([C@@H]2CCCCN2)C1 [Cobimetinib] | 100.8 | 93.9 | 98.0 | 103.4 | 99.0 | 97.6 | 94.8 | 101.1 | 99.0 | 99.0 | 97.9 | 101.3 | 100.3 | 94.5 | 98.9 | 96.8 | 100.8 | 103.3 | 99.2 | 98.4 | Long-term stability, 6 weeks, 4°C, without daylight Accuracy [%] (validation standard MOV): 108.3%; Long-term stability, 1 month, -20°C Accuracy [%] (validation standard ULOV): 100.6%; Long-term stability, 1 month, -80°C Accuracy [%] (validation standard ULOV): 97.3%; Long-term stability, 2 month, -20°C Accuracy [%] (validation standard ULOV): 104.5%; Long-term stability, 2 month, -80°C Accuracy [%] (validation standard ULOV): 103.6%; Long-term stability, 3 month, -20°C Accuracy [%] (validation standard ULOV): 100.6%; Long-term stability, 3 month, -80°C Accuracy [%] (validation standard ULOV): 98.3%; Long-term stability, 6 weeks, 4°C, without daylight Accuracy [%] (validation standard ULOV): 102.4% |
| C[C@@H](Oc1cc(-c2cnn(C3CCNCC3)c2)cnc1N)c1c(Cl)ccc(F)c1Cl [Crizotinib] | 87.5 | 85.4 | 90.8 | 93.8 | 87.5 | 90.2 | 68.4 | 77.1 | 75.4 | 74.2 | 78.9 | 72.6 | 73.9 | 58.2 | 90.2 | 89.3 | 96.3 | 96.2 | 94.9 | 95.1 | Long-term stability, 6 weeks, 4°C, without daylight Accuracy [%] (validation standard MOV): 93.4%; Long-term stability, 1 month, -20°C Accuracy [%] (validation standard ULOV): 84.4%; Long-term stability, 1 month, -80°C Accuracy [%] (validation standard ULOV): 80.1%; Long-term stability, 2 month, -20°C Accuracy [%] (validation standard ULOV): 88.8%; Long-term stability, 2 month, -80°C Accuracy [%] (validation standard ULOV): 89.2%; Long-term stability, 3 month, -20°C Accuracy [%] (validation standard ULOV): 88.4%; Long-term stability, 3 month, -80°C Accuracy [%] (validation standard ULOV): 89.7%; Long-term stability, 6 weeks, 4°C, without daylight Accuracy [%] (validation standard ULOV): 83.8% |
